As a reminder, the ED50 is the dose that gives a 50% effect, or the effect in half of the subjects. Read a low ED50 as greater potency.

SMILES strings stand for the structures. Where two headings read alike, the source gives them in different places.

Experiment [1] concerns the target T1, serotonin 1A (5-HT1A) receptor (Rattus norvegicus, UniProt P19327).
T1 construct: Freezed hippocampus dissected out from rats were homogenized; from tissue; host or cells: rat hippocampus, crude synaptosome membranes
T1 sequence (P19327 1-422): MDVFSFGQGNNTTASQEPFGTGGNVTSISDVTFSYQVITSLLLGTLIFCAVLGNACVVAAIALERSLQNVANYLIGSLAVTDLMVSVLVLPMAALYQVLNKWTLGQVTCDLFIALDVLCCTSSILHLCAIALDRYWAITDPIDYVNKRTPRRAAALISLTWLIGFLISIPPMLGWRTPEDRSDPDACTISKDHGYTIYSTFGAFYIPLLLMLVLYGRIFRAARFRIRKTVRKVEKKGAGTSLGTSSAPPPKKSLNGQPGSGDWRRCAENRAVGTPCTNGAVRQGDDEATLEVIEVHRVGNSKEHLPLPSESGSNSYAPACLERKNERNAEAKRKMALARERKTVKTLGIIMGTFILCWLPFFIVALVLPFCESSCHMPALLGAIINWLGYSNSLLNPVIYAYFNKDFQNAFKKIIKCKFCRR
Briefly: 5-HT1A receptor affinity, 3H-8-OH-DPAT binding test (Experiment 1). The protocol:
Experiment 1: affinity for serotonin 1A (5-HT1A) receptor [^3 H-8-Hydroxy-2-dipropylaminotetralin (^3 H-8-OH-DPAT)binding test]
After completion of reaction, the suspension was centrifuged at 40,000×g for 20 minutes at 0° C.
Then to the mixture was added 5 ml of ice-cold 50 mM Tris-CHI buffer (pH 7.4) rapidly vacuum-filtered through Whatman® GF/B filters and was washed twice with 5 ml of the same buffer. The radioactivity of the residue remaining on the filters was measured by liquid scintillation counter. Nonspecific binding was determined under the presence of 10^-5 M serotonin (5-HT).

The target of the next experiment is T2, dopamine 2 (D2) receptor (Rattus norvegicus, UniProt P61169).
T2 construct: Freezed corpus striatum dissected out from rats were homogenized; from tissue; host or cells: rat corpus striatum, crude synaptosome membranes
Briefly: D2 receptor affinity, 3H-Spiperone binding test (Experiment 3). The following applies: 3H-Spiperone 0.2 nM, corpus striatum, 37° C., 20 minutes; read-out: RECEPTOR BINDING I-C50 D2. The procedure:
Experiment 3: affinity for dopamine 2 (D2)receptor (^3 H-Spiperone binding test.)
The resulting pellet was homogenized in 150 volumes of 50 mM Tris-HCl buffer (PH 7.1) containing 120 mM potassium chloride, 2 mM calcium chloride, 1 mM magnesium chloride, 0,1% ascorbic acid and 10 μM pargyline. The suspension was incubated at 37° C. for 10 minutes and then provided as synaptosome membranes solution for the next assays.
To the aliquots (900μ) of synaptosome membranes solution were added 50 μl of ^3 H-Spiperone solution at the terminal concentration of 0.2 nM and 50 μl of test compound solution or 50 μl of its medium, and incubated at 37° C. for 20 minutes. After completion of the reaction, the mixture was rapidly vacuum-filtered through Whatman® GF/B filters. The filters were washed three times with 5 ml of the above buffer, and then the radioactivity of the residue remaining on the filters was measured by liquid scintillation counter.

Experiment [2] concerns the target serotonin 2 (5-HT2) receptor (Rattus norvegicus, UniProt P14842). Briefly: 5-HT2 receptor affinity, 3H-Ketanserin binding test (Experiment 2).
Procedure: Experiment 2: affinity for serotonin 2(5-HT2)receptor (^3 H-Ketanserin binding test).
The suspension was centrifuged at 40,000×g for 20 minutes at 0° C. again. The resulting pellet was homogenized in 100 volumes of the above buffer and provided as synaptosome membranes solution for the next assay.
To the aliquots (900μ) of synaptosome membranes solution were added 50 μl solution of ^3 H-Ketanserin solution at the terminal concentration of 0.2 mM and 50 μl of test compound or its medium, and incubated at 37° C. for 20 minutes. After completion of the reaction, the mixture was rapidly vacuum-filtered through Whatman® GF/B filters. The filters were washed three times with 5 ml of the above buffer, and then the radioactivity of the residue remaining on the filters was measured by liquid scintillation counter. Non specific binding was determined under the presence of 10 μM of mianserin.
The test system of the next experiment is group-caged mice. Briefly: stress-induced hyperthermia, screening model of anxiety. It counts as in vivo. To be noted: Mouse, ip. From the text:
This procedure is based upon the antagonism of an increase in rectal temperature observed in group-caged mice as they are being removed from their cohorts.

Sequence of serotonin 2 (5-HT2) receptor (P14842 whole entry): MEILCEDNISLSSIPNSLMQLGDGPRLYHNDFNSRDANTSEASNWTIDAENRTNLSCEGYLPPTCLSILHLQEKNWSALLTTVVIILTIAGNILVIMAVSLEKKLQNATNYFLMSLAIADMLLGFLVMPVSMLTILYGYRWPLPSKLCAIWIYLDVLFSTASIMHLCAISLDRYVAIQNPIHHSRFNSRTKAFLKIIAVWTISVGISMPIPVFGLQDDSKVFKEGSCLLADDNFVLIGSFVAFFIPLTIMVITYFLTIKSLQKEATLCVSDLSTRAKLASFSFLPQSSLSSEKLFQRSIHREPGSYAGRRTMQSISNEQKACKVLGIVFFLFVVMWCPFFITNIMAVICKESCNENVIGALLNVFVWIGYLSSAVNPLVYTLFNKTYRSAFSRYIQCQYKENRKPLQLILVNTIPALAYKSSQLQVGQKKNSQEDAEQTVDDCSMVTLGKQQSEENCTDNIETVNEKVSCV
T2 sequence (P61169 whole entry): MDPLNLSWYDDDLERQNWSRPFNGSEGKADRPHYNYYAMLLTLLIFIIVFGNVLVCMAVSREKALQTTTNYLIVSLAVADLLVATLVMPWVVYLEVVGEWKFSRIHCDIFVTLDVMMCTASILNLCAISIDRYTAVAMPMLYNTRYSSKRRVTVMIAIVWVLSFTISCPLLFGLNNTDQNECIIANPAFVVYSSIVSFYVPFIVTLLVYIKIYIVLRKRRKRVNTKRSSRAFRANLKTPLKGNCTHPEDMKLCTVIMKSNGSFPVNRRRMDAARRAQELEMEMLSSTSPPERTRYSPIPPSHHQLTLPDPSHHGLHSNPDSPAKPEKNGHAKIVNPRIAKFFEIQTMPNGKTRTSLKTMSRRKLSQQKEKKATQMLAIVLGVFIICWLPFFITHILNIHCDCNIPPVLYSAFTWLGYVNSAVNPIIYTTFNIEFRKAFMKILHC

`CN1C[C@H](CNC(=O)Nc2ccccc2)C[C@@H]2c3cc(C(C)(C)C)cc4[nH]cc(c34)C[C@H]21` [Example 12, 6-Methyl-8β-phenylaminocarbonylaminomethyl-13-t-butyl-ergoline]: the IC50 in experiment [1] was found to be 0.01 µM; on dopamine 2 (D2) receptor, 2.1 µM; in experiment [2], 6.15 µM.
For `CN1C[C@H](CO)C[C@@H]2c3cc(C(C)(C)C)cc4[nH]cc(c34)C[C@H]21` [Example 3, 6-Methyl-8β-hydroxymethyl-13-t-butyl-ergoline] the same measures were 0.01 µM, 4.45 µM and 1.1 µM.
In the case of `CN1C[C@H](CNC(=O)C(C)(C)C)C[C@@H]2c3cc(C(C)(C)C)cc4[nH]cc(c34)C[C@H]21` [Example 7, 6-Methyl-8β-pivaloylaminomethyl-13-t-butyl-ergoline], the values for the IC50 (in experiment [1]; at dopamine 2 (D2) receptor; in experiment [2]) were 0.01 µM, 5.1 µM and 1.2 µM, respectively. In addition, the ED50 with group-caged mice turned out to be 0.06 mg/kg.
As for `COC(=O)[C@@H]1C[C@@H]2c3cc(C(C)(C)C)cc4[nH]cc(c34)C[C@H]2N(C)C1` [Example 2, 6-Methyl-8β-methoxycarbonyl-13-t-butyl-ergoline], the figures for the IC50 (in experiment [1]; at dopamine 2 (D2) receptor; in experiment [2]) were 0.01 µM, 2.77 µM and 1.87 µM, respectively.
In the experiment on group-caged mice, `Cc1nc(C(=O)NCC2CC3c4cc(C(C)(C)C)cc5[nH]cc(c45)CC3N(C)C2)cs1` (stereo not drawn) [Example 17, 6-Methyl-8β-(2-methyl-4-thiazoyl)aminomethyl-13-t-butyl-ergoline] displayed an ED50 of 0.06 mg/kg.
For `CN1C[C@H](CNC(=O)c2cncc(Br)c2)C[C@@H]2c3cc(C(C)(C)C)cc4[nH]cc(c34)C[C@H]21` [Example 9, 6-methyl-8β-(5-bromo-nicotinoyl)aminomethyl-13-t-butyl-ergoline], the IC50 in experiment [1] stood at 0.01 µM; at dopamine 2 (D2) receptor it was 2.1 µM; in experiment [2], 1.1 µM. Moreover, the ED50 in the experiment on group-caged mice was determined as 0.03 mg/kg.
For the compound `CN1C[C@H](CN)C[C@@H]2c3cc(C(C)(C)C)cc4[nH]cc(c34)C[C@H]21` [Example 4, 6-Methyl-8β-aminomethyl-13-t-butyl-ergoline], the IC50 in experiment [1] was found to be 0.01 µM; at dopamine 2 (D2) receptor it was 3.33 µM; in experiment [2], 0.7 µM.
Take `CN1C[C@H](CNC(=O)c2ccncc2)C[C@@H]2c3cc(C(C)(C)C)cc4[nH]cc(c34)C[C@H]21` [Example 8, 6-Methyl-8β-isonicotinoylaminomethyl-13-t-butyl-ergoline]: the IC50 in experiment [1] was 0.08 µM; at dopamine 2 (D2) receptor, 2.9 µM; in experiment [2] it was 2.1 µM.
As to `CN1CC(CNC(=O)Cc2ccccc2)CC2c3cc(C(C)(C)C)cc4[nH]cc(c34)CC21` (stereo not drawn) [Example 6, 6-Methyl-8β.phenylacetylaminomethyl-13-t-butyl-ergoline], the IC50 is 0.008 µM in experiment [1], 1.25 µM on dopamine 2 (D2) receptor and 0.7 µM in experiment [2]. The ED50 in the experiment with group-caged mice is 0.06 mg/kg.
For `CCOC(=O)NC[C@@H]1C[C@@H]2c3cc(C(C)(C)C)cc4[nH]cc(c34)C[C@H]2N(C)C1` [Example 11, 6-Methyl-8β-ethoxycarbonylaminomethyl-13-t-butyl-ergoline] the same measures were 0.05 µM, 3.1 µM, 3.48 µM and 0.06 mg/kg.
Compound `Cc1cc(C(=O)NCC2CC3c4cc(C(C)(C)C)cc5[nH]cc(c45)CC3N(C)C2)nn1C` (stereo not drawn) [Example 16, 6-Methyl-8β-(1,5-dimethyl-3-pyrazoyl)aminomethyl-13-t-butyl-ergoline] came in with an ED50 in the experiment with group-caged mice of 0.06 mg/kg.
For the compound `CN1C[C@H](CNC(=O)C2CCCCC2)C[C@@H]2c3cc(C(C)(C)C)cc4[nH]cc(c34)C[C@H]21` [Example 13, 6-Methyl-8β-cyclohexylcarbonylaminomethyl-13-t-butyl-ergoline], the IC50 in experiment [1] is 0.005 µM; on dopamine 2 (D2) receptor, 1.7 µM; in experiment [2], 1.1 µM.
`COC(=O)C1CC2c3cc(C(C)(C)C)cc4[nH]c(SC)c(c34)CC2N(C)C1` (stereo not drawn) [Example 1, 2-Thiomethyl-6-methyl-8β-methoxycarbonyl (13,14)-t-butyl-ergoline]: the IC50 in experiment [1] (read-out: RECEPTOR BINDING I-C50 5-HT1A, 3H-8-OH-DPAT 0.2 nM, rat hippocampus, 37° C., 10 minutes) was determined as 0.03 µM; at dopamine 2 (D2) receptor, 5.2 µM; in experiment [2] (read-out: RECEPTOR BINDING I-C50 5-HT2, 3H-Ketanserin 0.2 mM (so in the source), rat cerebral cortex, 37° C., 20 minutes), 6.7 µM.
